Counter-ions that a name gives are not always drawn.
What was measured:
[1] = tested on: sorbitol accumulation in the sciatic nerve; test: inhibition of sorbitol accumulation in the sciatic nerve of streptozotocinized (diabetic) rats; type: in vivo; details: oral 0.25 mg/kg at 4, 8 and 24 hours following streptozotocin; sorbitol in sciatic nerves measured 27 hours after induction of diabetes; versus untreated animal
Protocol: The compounds of Example 2 and 4 were tested for their ability to reduce or inhibit sorbitol accumulation in the sciatic nerve of streptozotocinized (i.e. diabetic) rats by the procedure essentially described in U.S. Pat. No. 3,821,383. In the present study, the amount of sorbitol accumulation in the sciatic nerves was measured 27 hours after induction of diabetes. The compounds were administered orally at the dose levels of 0.25 mg/kg at 4, 8 and 24 hours following the administration of streptozotocin. The results obtained in this manner are presented below in terms of percent inhibition (%) afforded by the test compound as compared to the case where no compound was administered (i.e. the untreated animal, where sorbitol levels normally rise from approximately […]. tissue to as high as 400 mM/g. tissue in the 27 hour test period): […]

[2] = tested on: aldose reductase; test: inhibition of aldose reductase enzyme activity (partially purified enzyme from human placenta); type: biochemical; details: percent inhibition of enzyme activity
Protocol: The compounds of Example 2 and 4 were tested for their ability to reduce or inhibit aldose reductase enzyme activity, following the procedure described in U.S. Pat. No. 3,821,383 and based on the procedure of Hayman et. al., Journal of Biological Chemistry, 240 877 (1965). The substrate employed was partially purified aldose reductase enzyme obtained from human placenta. The results obtained with each compound at a concentration of 10^-6 M are expressed as percent inhibition of enzyme activity.

% Inhibition at 10^-6 M [2] | SMILES | % Inhibition at 0.25 mg/kg [1]
58% | Nc1cc(Cl)cc2c1OCCC21NC(=O)NC1=O (stereo not shown) [Example 2, 8-Amino-6-chloro-spiro[4H-2,3-dihydro-1-benzopyran-4,4'-imidazolidine]-2',5'-dione hydrochloride] | 17%
40% | Nc1cc(F)cc2c1OCC[C@]21NC(=O)NC1=O [Example 4, 4S-8-amino-6-fluoro-spiro[4H-2,3-dihydro-1-benzopyran-4,4'-imidazolidine]-2',5'-dione hydrochloride] | 40%

Source: patent US4248882A, “Treating diabetes-associated complications with hydantoin amines” (Pfizer Inc., priority 1980, dated 1981)
